Test results: paper PMC5066151 (ACS Medicinal Chemistry Letters, 2016)

Key:
[1] = cited from earlier work
[2] = target: T1, recombinant human renin (rh-renin) (Homo sapiens, UniProt P00797); experiment: Rh-renin inhibition assay; type: biochemical; settings: 3R,5S-enantiomer vs 3S,5R-enantiomer; rh-renin or hPRA assay
T1 sequence (P00797 67-406): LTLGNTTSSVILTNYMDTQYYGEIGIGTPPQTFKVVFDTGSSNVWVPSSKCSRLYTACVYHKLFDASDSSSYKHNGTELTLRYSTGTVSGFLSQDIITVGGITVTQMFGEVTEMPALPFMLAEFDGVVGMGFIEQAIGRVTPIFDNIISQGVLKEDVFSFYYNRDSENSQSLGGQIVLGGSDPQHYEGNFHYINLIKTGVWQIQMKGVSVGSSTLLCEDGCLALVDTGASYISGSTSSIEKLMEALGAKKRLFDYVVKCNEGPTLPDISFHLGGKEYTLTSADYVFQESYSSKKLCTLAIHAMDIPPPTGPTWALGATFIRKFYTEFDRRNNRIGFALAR

[3] = target: T2, endogenous renin in human plasma (Homo sapiens, UniProt P00797); experiment: Human plasma renin activity; type: biochemical; settings: methoxypropylamino vs furfurylamine S3sp binder (compound 5)
T2 sequence (P00797 67-406): T1 sequence (P00797 67-406)

[4] = Pharmacokinetic analysis in rat cassette dosing; type: in vivo; settings: 1 mg/kg p.o., n = 3
pepsin = pepsin (Homo sapiens, UniProt P0DJD8); experiment: Selectivity against aspartic protease pepsin; type: biochemical
Sequence of pepsin (P0DJD8 63-388): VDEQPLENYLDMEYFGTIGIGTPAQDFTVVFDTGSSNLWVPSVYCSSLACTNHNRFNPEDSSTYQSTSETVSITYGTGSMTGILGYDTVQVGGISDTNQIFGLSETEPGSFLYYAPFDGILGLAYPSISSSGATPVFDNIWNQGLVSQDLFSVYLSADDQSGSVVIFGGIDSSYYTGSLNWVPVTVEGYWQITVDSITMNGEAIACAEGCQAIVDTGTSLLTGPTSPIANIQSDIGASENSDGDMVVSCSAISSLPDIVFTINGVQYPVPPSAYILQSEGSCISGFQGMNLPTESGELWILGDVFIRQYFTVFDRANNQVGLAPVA

[5] = test system: human-angiotensinogen and human-renin double transgenic rats (dTg rat); experiment: Antihypertensive effect, systolic blood pressure by tail-cuff in dTg rat model

SMILES: CC(C)CN(C(=O)c1cnc(C(C)(C)C)nc1NCc1ccco1)[C@H]1CCCNC1 [Compound 1]
- oral bioavailability in rats [1]: 13.8%

SMILES: COC(=O)[C@H]1CNC[C@@H](N(CC(C)C)C(=O)c2cnc(C(C)(C)C)nc2NCc2ccco2)C1 [Compound 5]
- fold more potent toward renin than its enantiomer 4 [2]: about 30 fold

SMILES: COCCCNc1nc(C(C)(C)C)ncc1C(=O)N(CC(C)C)[C@@H]1CNC[C@H](C(=O)OC)C1 [Compound 6]
- fold decrease in renin inhibitory activity relative to the furfurylamine moiety [3]: 10 fold

SMILES: COCCCNc1nc(C(C)(C)C)ncc1C(=O)N(CC(C)C)[C@@H]1CNC[C@H](C(=O)N2CCOCC2)C1 [Compound 8]
- AUCpo [4]: not detected

SMILES: COCCCCn1c(C(=O)N(CC(C)C)[C@@H]2CNC[C@H](C(=O)N3CCOCC3)C2)nc2ccccc21.Cl [Compound 10, 1-(4-methoxybutyl)-N-(2-methylpropyl)-N-[(3S,5R)-5-(morpholin-4-yl)carbonylpiperidin-3-yl]-1H-benzimidazole-2-carboxamide hydrochloride]
- IC50 (pepsin): > 10 µM
- antihypertensive efficacy (SBP) compared with aliskiren 75 mg/kg ([5]; 3 mg/kg p.o., 5 h after oral administration): comparable to that of aliskiren
- antihypertensive efficacy (SBP) compared with aliskiren 75 mg/kg ([5]; 10 mg/kg p.o., 5 and 24 h after administration): exceeded that of aliskiren
- antihypertensive efficacy (SBP) ([5]; 3 and 10 mg/kg p.o., SBP at 5 and 24 h): potent and long-lasting antihypertensive efficacy in a dose-dependent manner
